Data as given in US20050277699A1, “Method of decreasing sebum production and pore size” (Unilever Home & Personal Care USA, Division Of Conopco, Inc., priority 2004, published 2005).

Tested on: human sebocytes
Experiment: Sebocyte assay: 14C-acetate label remaining in cultured sebocytes (sebum suppression)
Format: cell-based
Experimental: Secondary cultures of human sebocytes obtained from an adult […] were grown in 96-well tissue culture plates (Packard) until three days post-confluence. Sebocyte growth medium consisted of Clonetics Keratinocyte Basal Medium (KBM) supplemented with 14 ug/ml bovine pituitary extract, 0.4 ug/ml hydrocortisone, 5 ug/ml insulin, 10 ng/ml epidermal growth factor, 1.2×10^−10 M cholera toxin, 100 units/ml penicillin, and 100 ug/ml streptomycin. All cultures were incubated at 37° C. in the presence of 7.5% CO2. Medium was changed three times per week. On the day of experimentation, the growth medium was removed and the sebocytes washed three times with sterile Dulbecco's Modified Eagle Medium (DMEM; phenol red free). Fresh DMEM (200-microliters per well) was added to each sample (5 replicates) with 5-microliters of test agent (DL-α-Difluoromethylornithine hydrochloride) solubilized in water. Controls consisted of addition of water alone. Each plate was returned to the incubator for 20-hours followed by the addition of ^14C-acetate buffer (5 mM final concentration, 56 mCi/mmol specific activity). Sebocytes were returned to the incubator for 4-hours afterwhich each culture was rinsed 3-times with phosphate buffered saline to remove unbound label. Radioactive label remaining in the sebocytes was determined using a Packard TopCount scintillation counter. Statistical significance (p value) was calculated using student's t-test. Phenol Red, a known sebum suppressive agent, was employed as a positive control. […] The experiment was repeated as above with modifications. On the day of experimentation, the growth medium was removed and the sebocytes washed three times with sterile Dulbecco's Modified Eagle Medium (DMEM; phenol red free). Fresh DMEM was added to each sample (3 replicates) with 5-microliters of test agent (DL-a-Difluoromethylornithine hydrochloride) solubilized in water. Controls consisted of addition of water alone. Each plate was returned to the incubator for 68-hours followed by the addition of ^14C-acetate buffer (5 mM final concentration, 56 mCi/mmol specific activity). Sebocytes were returned to the incubator for 4-hours, followed by rinsing each culture 3-times with phosphate buffered saline to remove unbound label. Radioactive label remaining in the sebocytes was determined using a Packard TopCount scintillation counter. Statistical significance (p value) was calculated using student's t-test.

Row | Structure (SMILES) | % of Control (radioactive label remaining in the sebocytes) (10 uM, 20-hours incubation then 4-hours 14C-acetate (24-hours), 5 replicates) | % of Control (radioactive label remaining in the sebocytes) (10 uM, 68-hours incubation then 4-hours 14C-acetate, 3 replicates) | % of Control (radioactive label remaining in the sebocytes) (1000 uM, 20-hours incubation then 4-hours 14C-acetate (24-hours), 5 replicates) | % of Control (radioactive label remaining in the sebocytes) (1000 uM, 68-hours incubation then 4-hours 14C-acetate, 3 replicates) | sebum suppressive activity (in words) (after prolonged incubation (68-hours + 4-hours)) | activity at 28.2 µM (Homo sapiens, 28.2 uM, 20-hours incubation then 4-hours 14C-acetate (24-hours), positive control, read-out: % of Control (radioactive label remaining in the sebocytes)) | activity at 282 µM (Homo sapiens, 282 uM, 20-hours incubation then 4-hours 14C-acetate (24-hours), positive control, read-out: % of Control (radioactive label remaining in the sebocytes))
1 | Cl.NCCCC(N)(C(=O)O)C(F)F (racemic) [DFMO, DL-α-Difluoromethylornithine hydrochloride] | 95.5% | 59.5% | 88.0% | 41.4% | enhanced sebum suppressive activity | – | –
2 | O=S1(=O)OC(c2ccc(O)cc2)(c2ccc(O)cc2)c2ccccc21 [Phenol Red] | – | – | – | – | – | 22.1% | 34.5%
